The source of these data is patent US20040005636A1, “Method for obtaining the binding affinities of a peptide library to a protein” (priority 2002, published 2004).

Like-named read-outs stand apart in the source and are kept apart here. Ends that are not written are not given here. Peptide text beside a SMILES is read from it. * marks the point of attachment. Fluorescein(5-NHCOCH2) = O=C(C*)Nc1ccc2c(c1)C(=O)OC21c2ccc(O)cc2Oc2cc(O)ccc21

For assay [1], the target named is T1, hTRβ-LBD (Homo sapiens, UniProt P10828).
T1 construct: The receptor ERα-LBD or TRβ-LBD, expressed using reported protocols; made in house
T1 sequence (P10828 217-461 limits assumed): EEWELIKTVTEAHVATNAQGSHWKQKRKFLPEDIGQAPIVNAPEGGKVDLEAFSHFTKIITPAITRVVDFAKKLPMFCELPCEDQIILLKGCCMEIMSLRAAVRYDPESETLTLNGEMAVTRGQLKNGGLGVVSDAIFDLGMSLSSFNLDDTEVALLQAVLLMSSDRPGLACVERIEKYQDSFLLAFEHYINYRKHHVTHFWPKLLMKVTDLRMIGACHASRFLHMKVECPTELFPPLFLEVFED
Kind of assay: Fluorescence polarization assay of coregulator peptide binding to TRβ-LBD. As to conditions: for Kd: TRβ-LBD with ligand T3, 10 nM fluorescent peptide, mean of 2 independent assays in quadruplicate, AL = assay limits, read-out: Observed Kd (dissociation constants for p160 peptides for TRβ). Here is the method:
(§1) The peptide library synthesized in Example 1 was assayed with ERα or TRβ receptor. Library members were kept at a constant concentration of 10 nM. A ligand was optionally added to the nuclear hormone receptor.
(§2) The receptor ERα-LBD or TRβ-LBD, expressed using reported protocols (for TR see, e.g., Darimont et al., Genes Dev., 12(21):3343-56, (1998); and for ER, see, e.g., Shiau et al., Cell, (1998), 95(7):927-937), was used. The concentration of protein varied between 0.001-20 μM in the following way. In 96 well plates, hTRβ-LBD or hERα-LBD was serially diluted from 40 μM to 0.002 μM in binding buffer (50 mM Sodium Phosphate, 150 mM NaCl, pH 7.2, 1 mM DTT, 1 mM EDTA, 0.01% NP40, 10% glycerol), containing 200 μM ligand (T3, for TRβ, or estradiol, diethylstilbestrol, genistein or tamoxifen for ERα).
(§3) Subsequently 10 μL of diluted protein was added to 10 μL of fluorescent coregulator peptide (20 nM) in 384-well plates yielding final protein concentrations of […] and 10 nM fluorescent peptide concentration. The samples were allowed to equilibriate for 30 minutes. Binding was then measured using fluorescence polarization (excitation λ at 485 nm, emission λ at 530 nm) on an Analyst AD (available from Molecular Devices).
One of the major potential perturbing phenomena in this assay is unexpected quenching or enhancement of fluorescence intensity. To control for this, both overall fluorescence intensity and fluorescence anisotropy for each sample were simultaneously monitored.
(§4) All experiments were carried out in quadruplicate, with each iteration containing the positive and negative controls, and 10-12 dose points. The data were then fit using Klotz plots to determine IC50 values using nonlinear regression analysis that fits the data to a modification of the model of Heyduk and Lee. (Heyduk et al., Proc. Natl. Acad. Sci., (1990), 1774; Heyduk et al., Nature, (1993), 364, 6437; Heyduk et al., Methods Enzymol., 274, 492. Further analysis was conducted using Hill and Scatchard plots to confirm number and homogeneity of binding sites as discussed hereinbelow.
FIGS. 1 to 3 illustrate the results of three different measurements of the binding affinity of selected members of the SRC peptide library to TRβ-LBD. FIG. 4 illustrates a Scatchard plot, which provides the Kd for the SRC2-2 peptide. FIG. 5 illustrates a Hill plot, which provides the Kd for the SRC2-2 peptide. Both the Scatchard and Hill plot correlate with the direct binding plots illustrated in FIGS. 1-3. The Scatchard data were best fit to a linear function, which indicates a single class of binding sites. The slope of the Hill plot is 1, which also indicates a single class of binding sites. Measured dissociation constants for binding of the SRC peptide library to TRβ are illustrated in Table 3. […]
Background: Polarisation of emitted light reports the rotation of a fluorescent probe.

In assay [2] the target is T2, hERα-LBD (Homo sapiens, UniProt P03372).
T2 construct: The receptor ERα-LBD or TRβ-LBD, expressed using reported protocols; made in house
T2 sequence (P03372 311-547 limits assumed): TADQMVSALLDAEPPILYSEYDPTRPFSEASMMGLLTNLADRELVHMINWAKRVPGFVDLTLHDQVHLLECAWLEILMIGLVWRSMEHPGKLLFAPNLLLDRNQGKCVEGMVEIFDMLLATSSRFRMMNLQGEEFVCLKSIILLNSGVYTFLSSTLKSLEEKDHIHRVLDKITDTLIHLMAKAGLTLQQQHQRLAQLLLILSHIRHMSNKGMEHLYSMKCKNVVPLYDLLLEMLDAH
The assay can be described thus: Fluorescence polarization assay of coregulator peptide binding to ERα-LBD. As to conditions: ERα-LBD in the presence of estradiol; read-out: Dissociation constant for ERα, Estradiol. Here is the method:
as §1, §2, §3, §4
FIG. 6 illustrates direct binding of SRC2-2 to ERα-LBD in the presence of the ligands estradiol, diethylstilbestrol and genistein. […] Measured dissociation constants for binding of members of the SRC peptide library to ERα, in the presence of 3 different ligands, are illustrated in Table 4 wherein the binding units are μM. Table 5 illustrates a comparison of binding constants (μM) for SRC peptides with the TRβ receptor in the presence of thyroid hormone T3, and the ERα receptor in the presence of estradiol.

In assay [3] the target is T1, hTRβ-LBD. As to conditions: cited from earlier work.
In assay [4] the target is T3, hTRβ-LBD (ligand binding domain of thyroid hormone receptor β) (human, UniProt P10828 202-461).
T3 construct: Assayed with the small-molecule ligand T3 present
T3 sequence (looked up): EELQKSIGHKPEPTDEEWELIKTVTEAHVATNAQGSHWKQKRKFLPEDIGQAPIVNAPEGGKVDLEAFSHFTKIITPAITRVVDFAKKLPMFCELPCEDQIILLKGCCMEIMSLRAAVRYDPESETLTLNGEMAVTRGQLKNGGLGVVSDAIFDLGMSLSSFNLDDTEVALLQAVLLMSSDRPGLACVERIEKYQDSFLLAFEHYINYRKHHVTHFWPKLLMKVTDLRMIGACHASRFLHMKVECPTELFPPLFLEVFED
Kind of assay: fluorescence polarization, hTRβ-LBD titrated, T3 present; repeats Table 3. Here is the method:
(§5) The concentration of protein varied between 0.001-20 μM in the following way. In 96 well plates, hTRβ-LBD or hERα-LBD was serially diluted from 40 μM to 0.002 μM in binding buffer (50 mM Sodium Phosphate, 150 mM NaCl, pH 7.2, 1 mM DTT, 1 mM EDTA, 0.01% NP40, 10% glycerol), containing 200 μM ligand (T₃, for TRβ, or estradiol, diethylstilbestrol, genistein or tamoxifen for ERα).
as §3
(§6) All experiments were carried out in quadruplicate, with each iteration containing the positive and negative controls, and 10-12 dose points. The data were then fit using Klotz plots to determine IC₅₀ values using nonlinear regression analysis that fits the data to a modification of the model of Heyduk and Lee. (Heyduk et al., Proc. Natl. Acad. Sci., (1990), 1774; Heyduk et al., Nature, (1993), 364, 6437; Heyduk et al., Methods Enzymol., 274, 492. Further analysis was conducted using Hill and Scatchard plots to confirm number and homogeneity of binding sites as discussed hereinbelow.

In assay [5] the target is T4, hERα-LBD (ligand binding domain of estrogen receptor α) (human, UniProt P03372 297-554).
T4 construct: Assayed with estradiol, diethylstilbestrol, genistein or tamoxifen present; the ligand is named under assay in each row
T4 sequence (looked up): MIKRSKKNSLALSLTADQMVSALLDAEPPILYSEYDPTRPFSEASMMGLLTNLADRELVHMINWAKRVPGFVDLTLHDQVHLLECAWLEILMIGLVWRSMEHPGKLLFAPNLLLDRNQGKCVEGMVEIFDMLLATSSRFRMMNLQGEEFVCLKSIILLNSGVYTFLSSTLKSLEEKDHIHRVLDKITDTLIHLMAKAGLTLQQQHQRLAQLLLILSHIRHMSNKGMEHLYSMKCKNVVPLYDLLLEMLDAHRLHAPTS
The assay can be described thus: fluorescence polarization, hERα-LBD titrated, estradiol present; repeats Table 4. Here is the method:
as §5, §3, §6

Assay [6] addresses T4, hERα-LBD (ligand binding domain of …). Kind of assay: fluorescence polarization, labelled peptide 10 nM, hERα-LBD titrated, estradiol present. Here is the method:
as §5, §3, §6

For assay [7] the target is unchanged. Kind of assay: fluorescence polarization, labelled peptide 10 nM, hERα-LBD titrated, genistein present. Here is the method:
as §5, §3, §6

Assay [8] concerns the target T3, hTRβ-LBD (ligand binding domain of …). The assay can be described thus: fluorescence polarization, fluorescein-labelled peptide 10 nM, hTRβ-LBD titrated, T3 present. Here is the method:
as §5, §3, §6

In assay [9] the target is T4, hERα-LBD (ligand binding domain of …). The assay can be described thus: fluorescence polarization, labelled peptide 10 nM, hERα-LBD titrated, diethylstilbestrol present. Here is the method: as §5, §3, §6
The target of assay [10] is T3, hTRβ-LBD (ligand binding domain of …). The assay can be described thus: fluorescence polarization, hTRβ-LBD titrated, T3 present; Table 3 prints ≧3 µM for this pair. Here is the method:
as §5, §3, §6

The mark [11] stands for this setting: TRβ, Darimont et al., Genes & Dev. (1998) 12:3343, read-out: Published Results: Kd app.

Regarding `CC[C@H](C)[C@H](NC(=O)[C@H](CCCCN)NC(=O)[C@H](Cc1c[nH]cn1)NC(=O)[C@H](CCCCN)NC(=O)[C@H](CCC(=O)O)NC(=O)[C@H](CCCCN)NC(=O)[C@H](CC(C)C)NC(=O)[C@@H](N)CSCC(=O)Nc1ccc2c(c1)C(=O)OC21c2ccc(O)cc2Oc2cc(O)ccc21)C(=O)N[C@@H](CC(C)C)C(=O)N[C@@H](Cc1c[nH]cn1)C(=O)N[C@@H](CCCNC(=N)N)C(=O)N[C@@H](CC(C)C)C(=O)N[C@@H](CC(C)C)C(=O)N[C@@H](CCC(N)=O)C(=O)N[C@@H](CC(=O)O)C(=O)N[C@@H](CO)C(=O)N[C@@H](CO)C(=O)N[C@@H](CO)C(=O)N1CCC[C@H]1C(=O)N[C@H](C(=O)O)C(C)C` [SRC2-2], the Kd is 670 nM in assay [1]; 222 nM in assay [2]; 800 nM in assay [3] (setting [11]); 1000 nM in assay [3] (hTRβ-LBD, reported value, read-out: Reported Kd).

As to `CC(C)C[C@H](NC(=O)[C@H](CCCCN)NC(=O)[C@H](CCCCN)NC(=O)[C@H](Cc1c[nH]cn1)NC(=O)CNC(=O)[C@H](CCCCN)NC(=O)[C@H](CO)NC(=O)[C@H](CCC(=O)O)NC(=O)[C@@H](N)CSCC(=O)Nc1ccc2c(c1)C(=O)OC21c2ccc(O)cc2Oc2cc(O)ccc21)C(=O)N[C@@H](CC(C)C)C(=O)N[C@@H](CCC(N)=O)C(=O)N[C@@H](CC(C)C)C(=O)N[C@@H](CC(C)C)C(=O)N[C@H](C(=O)N[C@@H](CS)C(=O)N[C@@H](CO)C(=O)N[C@@H](CO)C(=O)N[C@@H](CC(=O)O)C(=O)N[C@@H](CC(=O)O)C(=O)N[C@@H](CCCNC(=N)N)C(=O)O)[C@@H](C)O` [SRC3-1] (H-C(Fluorescein(5-NHCOCH2))ESKGHKKLLQLLTCSSDDR-OH; N-terminus assumed), the “Comparison of affinity for TRβ and ERα” value in [1] (Tables 3, 4 and 5) is “approximately the same affinity”.

Consider `CC(C)C[C@H](NC(=O)[C@H](C)NC(=O)[C@H](CC(N)=O)NC(=O)[C@H](CCC(=O)O)NC(=O)[C@H](CCCCN)NC(=O)[C@H](CCCCN)NC(=O)[C@H](CCCCN)NC(=O)[C@@H](N)CSCC(=O)Nc1ccc2c(c1)C(=O)OC21c2ccc(O)cc2Oc2cc(O)ccc21)C(=O)N[C@@H](CC(C)C)C(=O)N[C@@H](CCCNC(=N)N)C(=O)N[C@@H](Cc1ccc(O)cc1)C(=O)N[C@@H](CC(C)C)C(=O)N[C@@H](CC(C)C)C(=O)N[C@@H](CC(=O)O)C(=O)N[C@@H](CCCCN)C(=O)N[C@@H](CC(=O)O)C(=O)N[C@@H](CC(=O)O)C(=O)N[C@H](C(=O)N[C@@H](CCCCN)C(=O)N[C@@H](CC(=O)O)C(=O)O)[C@@H](C)O` [SRC2-3], for which the results for the Kd in [1], in [2] and in [3] (setting [11]) were at least 3000 nM, 1420 nM and 3200 nM, respectively.

Consider `CC[C@H](C)[C@H](NC(=O)[C@H](CCCCN)NC(=O)[C@H](Cc1c[nH]cn1)NC(=O)[C@H](CCCNC(=N)N)NC(=O)[C@H](C)NC(=O)[C@@H](NC(=O)[C@H](CC(C)C)NC(=O)[C@@H](N)CSCC(=O)Nc1ccc2c(c1)C(=O)OC21c2ccc(O)cc2Oc2cc(O)ccc21)[C@@H](C)O)C(=O)N[C@@H](CC(C)C)C(=O)N[C@@H](Cc1c[nH]cn1)C(=O)N[C@@H](CCCNC(=N)N)C(=O)N[C@@H](CC(C)C)C(=O)N[C@@H](CC(C)C)C(=O)N[C@@H](CCC(N)=O)C(=O)N[C@@H](CCC(=O)O)C(=O)NCC(=O)N[C@@H](CO)C(=O)N1CCC[C@H]1C(=O)N[C@@H](CO)C(=O)N[C@@H](CC(=O)O)C(=O)O` [SRC1-2], for which the values for the Kd in assay [1] and in assay [2] were 930 nM and 231 nM, respectively.

Take C(5‑iodoacetamidofluorescein)ESKGHKKLLQLLTCSSDDR (The peptide has a second, internal Cys) [SRC3-1 coregulator peptide]: the Kd in [4] is 870 nM; in [5] it was 160 nM; in assay [6] it was 160 nM; in [7] it was 250 nM; in [8] it was 870 nM; in assay [9], 1000 nM.

In the case of C(5‑iodoacetamidofluorescein)KKKENALLRYLLDKDDTKD [SRC2-3 coregulator peptide], the Kd came out at 2000 nM in [7], 3000 nM in assay [10] and 786 nM in [9].
